Measurements as given in ChEMBL document CHEMBL4419165, “Fibcd1 for the prevention and treatment of diseases” (2014).
Active and inactive are the calls of the source. The rule behind the calls is not given here.

Tests used:
[1] = biological target: T1, Fibrinogen C domain-containing protein 1 (Homo sapiens) (UniProt Q8N539); assay: Binding affinity to V5-His tagged FIBCD1 ecto-domain (54 to 461 residues) (unknown origin) assessed as reduction in binding between FIBCD1 and acetylated BSA at 50 mM by ELISA relative to control
T1 sequence (whole entry): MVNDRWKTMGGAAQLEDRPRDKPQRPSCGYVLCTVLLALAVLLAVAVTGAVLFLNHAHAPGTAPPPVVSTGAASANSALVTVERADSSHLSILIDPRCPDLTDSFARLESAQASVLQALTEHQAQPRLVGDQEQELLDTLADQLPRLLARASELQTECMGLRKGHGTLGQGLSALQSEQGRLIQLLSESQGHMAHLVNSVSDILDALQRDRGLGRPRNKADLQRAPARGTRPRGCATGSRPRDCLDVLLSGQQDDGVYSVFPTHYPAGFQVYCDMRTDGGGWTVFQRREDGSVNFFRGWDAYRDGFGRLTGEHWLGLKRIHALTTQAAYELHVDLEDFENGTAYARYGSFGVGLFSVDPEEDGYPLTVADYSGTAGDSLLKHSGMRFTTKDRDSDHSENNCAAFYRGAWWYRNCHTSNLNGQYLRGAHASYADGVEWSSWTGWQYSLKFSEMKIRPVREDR

[2] = biological target: T1, Fibrinogen C domain-containing protein 1 (Homo sapiens); assay: Binding affinity to V5-His tagged FIBCD1 ecto-domain (54 to 461 residues) (unknown origin) expressed in HEK293 cells assessed as reduction in binding between FIBCD1 and acetylated BSA by ELISA; format: cell-based
[3] = biological target: T1, Fibrinogen C domain-containing protein 1 (Homo sapiens); assay: Binding affinity to V5-His tagged FIBCD1 ecto-domain (54 to 461 residues) (unknown origin) assessed as reduction in binding between FIBCD1 and acetylated BSA by ELISA relative to control
[4] = biological target: T1, Fibrinogen C domain-containing protein 1 (Homo sapiens); assay: Binding affinity to V5-His tagged FIBCD1 ecto-domain (54 to 461 residues) (unknown origin) expressed in CHO cells assessed as reduction in endocytosis of [125I]Acetylated BSA by measuring degraded acetylated BSA level measured up to 4 hrs; format: cell-based

`OC[C@H]1OC(O)[C@@H](O)[C@@H](O)[C@@H]1O` (stereo not given in full) was tested, and the inhibition [1] was < 50% and the I50 [2] was “inactive”.
`CC(=O)O` was tested, and the Ratio [3] was 0.7.
`CCC(=O)O` was tested, and the inhibition [1] was < 50% and the I50 [2] was “inactive”.
In the case of `CC(=O)OCC[N+](C)(C)C`, the Ratio [3] is reported as 0.2.
For `CCN(CC)CCCC(C)Nc1ccnc2cc(Cl)ccc12` (stereo not given), the Activity [4] was “Active”.
With `O=C[C@H](O)[C@@H](O)[C@@H](O)[C@H](O)CO` the inhibition [1] was < 50% and the I50 [2] was “inactive”.
For `OC[C@H]1OC(O)[C@H](O)[C@@H](O)[C@@H]1O` (stereo not given in full), the inhibition [1] was < 50% and the I50 [2] was “inactive”.
`CC(=O)N[C@@H]1[C@@H](O)[C@@H](O)[C@@H](CO)O[C@@H]1O` gave a Ratio [3] of 0.4.
In the case of `CCCC(=O)O`, the inhibition [1] is reported as < 50% and the I50 [2] is reported as “inactive”.
Work on `N[C@H]1[C@H]([C@H](O)[C@H](O)CO)OC(O)(C(=O)O)C[C@@H]1O` (stereo not given in full) yielded a Ratio [3] of 1.
